Source: PMC7402526, “An in vitro quantitative systems pharmacology approach for deconvolving mechanisms of drug-induced, multilineage cytopenias” (PLoS Computational Biology, 2020)

Columns and labels:
[1] = system: human bone marrow-derived CD34+ cells differentiated into multiple hematopoietic lineages; test: MLTA, overall effects across hematopoietic lineages; format: cell-based; settings: QSP model fit; EmaxT > 1.0 = cell-killing
Experimental: (§1) A custom optimized cytokine cocktail was developed using commercially available cytokines (Peprotech, New Jersey) to facilitate simultaneous multi-lineage differentiation and self-renewal of freeze-thawed primary human bone marrow-derived CD34+ cells in SFEM II media (cells and media from StemCell Technologies, Vancouver). Cultures were carried out in ultra-low attachment 96-well plates (Corning, New York) with test article added on day 0 and cultured at 37°C, 85% relative humidity, and 5% CO2 for six days before interrogating drug impact via 17-parameter flow cytometry.
(§2) The flow cytometry panel used to define hematopoietic subsets was composed of CD34-PECy7, CD90-PECY5, CD38-AF488, CD371-PE, CD45Ra-BV421, CD14-BV605, CD42b-AF647, CD10-PEDazzle594, CD235a-PerCPCy5.5 (BioLegend, California), CD15-BUV395, CD41a-APCH7, CD71-BV786 (BD Biosciences, California), and DAPI for dead cell exclusion (ThermoFisher, California). In short, Day 6 cells were harvested, FcR-blocked (FcR binding inhibitor, ThermoFisher), surface-stained, then analyzed in a buffer containing TruCount Control Beads using a BD LSR Fortessa SORP fitted with a high-throughput sampler (BD Biosciences, California). Data was analyzed in Diva 6.0.2 and exported to CSV where after all cell data was transformed to cell per mL then normalized on a per-donor basis to untreated control wells to determine drug impact.
(§3) Donor material was collected and cultured as described above. The number of replicate donor samples per drug ranged from 2–7 and varied per drug (S1 Table). Drug treatment was added at time 0 and cells were maintained in culture for 6 days. Concentrations tested for each drug compound are contained in S1 Table. Concentrations were selected to span a range that is clinically useful. Following treatment, cell populations were measured using flow cytometry. We extracted cell counts from flow cytometry data, normalized to bead counts, and corrected for well volume.
(§4) Each well was normalized to the average of six vehicle control wells. For drugs that were tested across multiple runs of the assay, vehicle-normalized donor data were pooled, and we used the average of these pooled data for further modeling. Normalized data used as model inputs are included in S1 Table.
We implemented drug effects using an Emax model for the drug’s effect on each cell type. The 13 maximum effect parameters (EmaxT,C) are unitless and can vary between 0 and 2 and where a subscript, C, represents one of the previously described 13 cell types. We adapted a traditional Emax model using the equations below. We interpreted EmaxT values less than or equal to one as anti-proliferative, and EmaxT values greater than one as indicating a cell-killing mechanism in addition to anti-proliferation. The relationships for these effects are included in the model using the following equations. Eq 2 describes the drug anti-proliferative effect in the net proliferation rate for a given cell type. Eq 3 describes the cell-killing EmaxCK effect.

[2] = system: monocyte progenitors (monocyte prog); test: MLTA, MonoP: concentration-response and QSP model fit; format: cell-based, human; settings: Homo sapiens, Monocyte, 144 h
Method in brief: (§5)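 Drug was added at time 0 to thawed human bone marrow CD34+ cells in SFEM II plus a cytokine cocktail. After 6 days at 37°C, subsets were counted by surface-marker flow with TruCount beads. Vehicle-normalized, donor-pooled data then fed an Emax model separating anti-proliferative from cell-killing effects.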

[3] = system: late erythroid cells (Eryth II); test: MLTA, ErythII: concentration-response and QSP model fit; format: cell-based, human; settings: Homo sapiens, 144 h
Method in brief: (§6)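 Freeze-thawed primary human bone marrow CD34+ cells were cultured 6 days in SFEM II with a cytokine cocktail, drug added on day 0. Subsets were counted by 17-parameter flow cytometry with TruCount beads and normalized to vehicle wells. An Emax QSP model (Emax 0–2, L1 regularization) was fitted to these counts.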

[4] = system: granulocyte progenitor (Gran-lin prog); test: MLTA, GranP: concentration-response and QSP model fit; format: cell-based, human; settings: Homo sapiens, 144 h
Method in brief: as §5

[5] = system: total viable cells (totalViableCells); test: MLTA, total live cells concentration-response; format: cell-based; settings: Homo sapiens, 144 h, 6 days, normalized to vehicle control, read-out: total_live normalized cell count
Experimental: as §1, §2, §3, §4

[6] = system: early erythroid cells (Eryth I); test: MLTA, ErythI: concentration-response and QSP model fit; format: cell-based, human; settings: Homo sapiens, 144 h
Method in brief: as §5

[7] = system: neutrophils (neutrophil-lin); test: MLTA, Neut: concentration-response and QSP model fit; format: cell-based, human; settings: Homo sapiens, Neutrophil, 144 h
Method in brief: as §6

[8] = system: multi-potent progenitors (MPPs); test: MLTA, MPPs: concentration-response and QSP model fit; format: cell-based, human; settings: Homo sapiens, 144 h
Method in brief: as §6

CCc1cnn2c(NCc3ccc[n+]([O-])c3)cc(N3CCCC[C@H]3CCO)nc12 [dinaciclib]
EmaxT effects across cell types (overall statement) [1]: > 1.0 | activity at 0.0002 µM ([2]; dose 0.2 nM, 6 days, normalized to vehicle control, read-out: MonoPs normalized cell count): 96.5% | activity at 0.001 µM ([2]; dose 1 nM, 6 days, normalized to vehicle control, read-out: MonoPs normalized cell count): 106% | activity at 0.005 µM ([2]; dose 5 nM, 6 days, normalized to vehicle control, read-out: MonoPs normalized cell count): 125% | activity at 0.025 µM ([2]; dose 25 nM, 6 days, normalized to vehicle control, read-out: MonoPs normalized cell count): 61.8% | activity at 0.1 µM ([2]; dose 100 nM, 6 days, normalized to vehicle control, read-out: MonoPs normalized cell count): 0.141% | activity at 0.5 µM ([2]; dose 500 nM, 6 days, normalized to vehicle control, read-out: MonoPs normalized cell count): 0.19% | activity at 2.5 µM ([2]; dose 2500 nM, 6 days, normalized to vehicle control, read-out: MonoPs normalized cell count): 0.231% | Emax ([2]; parameter from QSP model fitting, read-out: Emax_drug_MonoP): 0.04% | activity at 0.0002 µM ([3]; dose 0.2 nM, 6 days, normalized to vehicle control, read-out: ErythII normalized cell count): 90% | activity at 0.001 µM ([3]; dose 1 nM, 6 days, normalized to vehicle control, read-out: ErythII normalized cell count): 108% | activity at 0.005 µM ([3]; dose 5 nM, 6 days, normalized to vehicle control, read-out: ErythII normalized cell count): 98.7% | activity at 0.025 µM ([3]; dose 25 nM, 6 days, normalized to vehicle control, read-out: ErythII normalized cell count): 23.2% | activity at 0.1 µM ([3]; dose 100 nM, 6 days, normalized to vehicle control, read-out: ErythII normalized cell count): 0.0437% | activity at 0.5 µM ([3]; dose 500 nM, 6 days, normalized to vehicle control, read-out: ErythII normalized cell count): 0.0109% | activity at 2.5 µM ([3]; dose 2500 nM, 6 days, normalized to vehicle control, read-out: ErythII normalized cell count): 0.0201% | Emax ([3]; parameter from QSP model fitting, read-out: Emax_drug_ErythroidII): 7.1% | activity at 0.0002 µM ([4]; dose 0.2 nM, 6 days, normalized to vehicle control, read-out: GranPs normalized cell count): 97.3% | activity at 0.001 µM ([4]; dose 1 nM, 6 days, normalized to vehicle control, read-out: GranPs normalized cell count): 99.7% | activity at 0.005 µM ([4]; dose 5 nM, 6 days, normalized to vehicle control, read-out: GranPs normalized cell count): 93.8% | activity at 0.025 µM ([4]; dose 25 nM, 6 days, normalized to vehicle control, read-out: GranPs normalized cell count): 31.7% | activity at 0.1 µM ([4]; dose 100 nM, 6 days, normalized to vehicle control, read-out: GranPs normalized cell count): 0.0459% | activity at 0.5 µM ([4]; dose 500 nM, 6 days, normalized to vehicle control, read-out: GranPs normalized cell count): 0.033% | activity at 2.5 µM ([4]; dose 2500 nM, 6 days, normalized to vehicle control, read-out: GranPs normalized cell count): 0.0254% | Emax ([4]; parameter from QSP model fitting, read-out: Emax_drug_GranP): 0.0135% | viability at 0.0002 µM ([5]; dose 0.2 nM): 95.4% | viability at 0.001 µM ([5]; dose 1 nM): 107% | viability at 0.005 µM ([5]; dose 5 nM): 92.4% | viability at 0.025 µM ([5]; dose 25 nM): 26.1% | viability at 0.1 µM ([5]; dose 100 nM): 0.282% | viability at 0.5 µM ([5]; dose 500 nM): 0.4% | viability at 2.5 µM ([5]; dose 2500 nM): 0.255% | activity at 0.0002 µM ([6]; dose 0.2 nM, 6 days, normalized to vehicle control, read-out: ErythI normalized cell count): 112% | activity at 0.001 µM ([6]; dose 1 nM, 6 days, normalized to vehicle control, read-out: ErythI normalized cell count): 104% | activity at 0.005 µM ([6]; dose 5 nM, 6 days, normalized to vehicle control, read-out: ErythI normalized cell count): 73.3% | activity at 0.025 µM ([6]; dose 25 nM, 6 days, normalized to vehicle control, read-out: ErythI normalized cell count): 23.9% | activity at 0.1 µM ([6]; dose 100 nM, 6 days, normalized to vehicle control, read-out: ErythI normalized cell count): 0.828% | activity at 0.5 µM ([6]; dose 500 nM, 6 days, normalized to vehicle control, read-out: ErythI normalized cell count): 0.888% | activity at 2.5 µM ([6]; dose 2500 nM, 6 days, normalized to vehicle control, read-out: ErythI normalized cell count): 0.845% | Emax ([6]; parameter from QSP model fitting, read-out: Emax_drug_ErythroidI): 112% | activity at 0.0002 µM ([7]; dose 0.2 nM, 6 days, normalized to vehicle control, read-out: Neut normalized cell count): 83.8% | activity at 0.001 µM ([7]; dose 1 nM, 6 days, normalized to vehicle control, read-out: Neut normalized cell count): 83.1% | activity at 0.005 µM ([7]; dose 5 nM, 6 days, normalized to vehicle control, read-out: Neut normalized cell count): 24.9% | activity at 0.025 µM ([7]; dose 25 nM, 6 days, normalized to vehicle control, read-out: Neut normalized cell count): 0.684% | activity at 0.1 µM ([7]; dose 100 nM, 6 days, normalized to vehicle control, read-out: Neut normalized cell count): 0.0259% | activity at 0.5 µM ([7]; dose 500 nM, 6 days, normalized to vehicle control, read-out: Neut normalized cell count): 0.0166% | activity at 2.5 µM ([7]; dose 2500 nM, 6 days, normalized to vehicle control, read-out: Neut normalized cell count): 0.0149% | Emax ([7]; parameter from QSP model fitting, read-out: Emax_drug_Neut): 28.1% | activity at 0.0002 µM ([8]; dose 0.2 nM, 6 days, normalized to vehicle control, read-out: MPPs normalized cell count): 94.1% | activity at 0.001 µM ([8]; dose 1 nM, 6 days, normalized to vehicle control, read-out: MPPs normalized cell count): 104% | activity at 0.005 µM ([8]; dose 5 nM, 6 days, normalized to vehicle control, read-out: MPPs normalized cell count): 96.7% | activity at 0.025 µM ([8]; dose 25 nM, 6 days, normalized to vehicle control, read-out: MPPs normalized cell count): 53.4% | activity at 0.1 µM ([8]; dose 100 nM, 6 days, normalized to vehicle control, read-out: MPPs normalized cell count): 2.71% | activity at 0.5 µM ([8]; dose 500 nM, 6 days, normalized to vehicle control, read-out: MPPs normalized cell count): 2.67% | activity at 2.5 µM ([8]; dose 2500 nM, 6 days, normalized to vehicle control, read-out: MPPs normalized cell count): 0.896% | Emax ([8]; parameter from QSP model fitting, read-out: Emax_drug_MPP): 69.4%
